Assay results published in patent US20220040255A1, “CHEMOTHERAPEUTIC REMODELING OF THE GUT MICROBIOME” (THE SCRIPPS RESEARCH INSTITUTE, priority 2018, published 2022).
Where a SMILES comes first, the peptide text is derived from it. [ ]: non-standard residue; d: D form.

Experiments:
Type in all cases: in vivo, mice
[1] = Pharmacokinetics of c[wLwReQeR] via different routes of administration
Experimental: Pharmacokinetics. These experiments were carried out in part courtesy of Carol S. Ryan, Debra J. Search, Ricardo A. Garcia, and David A. Gordon at Bristol Myers Squibb (Hopewell, N.J., USA). Male Balb/C or C57BL/6 mice (20 g) were maintained on a chow diet. The cyclic peptide c[wLwReQeR] (SEQ ID NO:11) was dissolved in PBS containing 1% sucrose or 95% 50 mM acetate buffer containing 10% sucrose, 5% DMSO (pH=4), and sterile filtered through a 0.22-μm syringe filter before injection. Mice were fasted beginning 12 h before dosing, and continued the fast until after the 8-h time point blood draw was completed. Groups of three mice received a dose of the cyclic peptide via […] (5 mL/kg for subcutaneous and intraperitoneal, 10 mL/kg for oral gavage). Blood was drawn (30-60 μL) from the retro-orbital sinus into a heparinized capillary tube before dosing (0 min) and at different intervals from 30 min to 8 h after dosing. Plasma was isolated immediately from the whole blood by centrifugation at 5,000 rpm for 10 min at 4° C. Immediately after the plasma was isolated, 20 μL of plasma was acidified with 20 μL of 5% TFA to break peptide-protein interactions, and 40 μL of acetonitrile was then added. After vortexing for 30 s, the mixture was centrifuged at 13,000 rpm for 10 min at 4° C. The resultant supernatant was analyzed by using LC-MS SIM as described below.
LC-MS SIM quantitation of peptide concentration. Cyclic peptide concentrations were quantified by using reverse-phase HPLC coupled with mass spectrometry. The electrospray ionization mass spectrometry measurements were carried out in the positive ionization mode using a single quadrupole mass spectrometer (Hewlett Packard HP 1100 MSD series). 10 or 20 μL of sample were injected through a C8 reverse-phase column (Zorbax 300-SB, 4.6 mm×150 mm, 5 μm) using a flow rate of 1.5 mL/min and binary gradients of solvent A (99% H2O, 0.1% formic acid, 0.01% TFA) and solvent B (99% acetonitrile, 0.1% formic acid, 0.01% TFA). Mass detection was carried out in the selected ion monitoring (SIM) mode for the positive molecular ion, with the optimized fragmentor and capillary voltages of 180 V and 5 kV, respectively. The selected monitoring mass for cyclic peptide c[wLwReQeR] (SEQ ID NO:11) was 592.8 ([M+2H]^2+). For quantitative calibration, standard curves were established using mouse EDTA-anticoagulated plasma spiked with various concentrations of the peptide. The calibration curve was established by using linear fitting of the data, with correlation coefficient ≥0.98.

[2] = tested on: mouse liver and ileum gene expression; experiment: host gene expression (mouse RNA-seq, qPCR); settings: peptide-treated WD animals
Experimental: Mouse RNA-seq sample preparation and sequencing. Mouse tissues were harvested after 2 weeks of treatment, stored in RNAlater, and snap-frozen. 20-30 mg of mouse tissue was used for RNA extraction with RNeasy Mini Kit (Qiagen) following the manufacturer's instructions. Ribosomal RNA was removed from total RNA with Ribo-Zero Gold rRNA removal kit (Illumina). Strand-specific RNA-seq libraries were constructed as described previously (Hainer et al., Genes Dev. 29, 362-378, 2015). Libraries with different barcodes were pooled and single-end sequencing (75 bp) was performed on an Illumina NextSeq at the Scripps Research Institute next generation sequencing core.
Mouse RNA sequencing data analysis. After ribosomal RNA sequences were removed, the RNA transcripts were quantified using RSEM. […] Enrichment of Gene Ontology terms and categories was performed with DAVID 6.8.
Quantitative real-time PCR. To validate selected gene expression results, qPCR reactions were carried out. Mouse livers were harvested two weeks after peptide treatment and total RNA was extracted using RNeasy Mini (Qiagen) following manufacturer's instructions. […]

[3] = tested on: Foxp3+ regulatory T cell (Treg) population; experiment: quantification of regulatory T cells in lamina propria
Excerpt: Quantification of regulatory T cells. Lamina propria (LP) immune cells from the small intestine were isolated using lamina propria dissociation kit (Miltenyi Biotec) following the manufacturer's instruction. All antibodies and flow cytometry reagents were obtained from Thermo Fisher. We used FITC anti-CD4 (RM4-5), PE anti-Foxp3 (FJK-16s), PE-Cyanine 7 anti-GATA3 (TWAJ), APC anti ROR gamma t (AFKJS-9), APC-efluor780 anti-Helios (22F6) and e-fluor 450 anti-CD3 (17A2) antibodies. To block non-antigen specific binding of immunoglobulins and discriminate live from dead cells, LP cell suspensions were incubated with mouse BD Fc block (BD Biosciences) and e-fluor 506 fixable viability dye (Thermo Fisher) for 30 minutes on ice. For surface staining, the cells were incubated with antibodies for 25 min, washed and fixed in fixation/permeabilization solution (Thermo Fisher). After being washed with transcription factor wash buffer (Thermo Fisher), cells were stained intracellularly for 45 min at room temperature, washed, and resuspended in PBS. Samples were read in a FACs canto analyzer (BD Biosciences) and analyzed with FACs Diva software v 8.0 (BD Biosciences). Total LP cell numbers were quantified to calculate regulatory T cell ratios. Flow Jo v10 software was used for dot plots generation and final analysis.

[4] = wild-type and LDLr−/− mice fed a WD

SMILES: CC(C)C[C@@H]1NC(=O)[C@@H](Cc2c[nH]c3ccccc23)NC(=O)[C@H](CCCNC(=N)N)NC(=O)[C@@H](CCC(=O)O)NC(=O)[C@H](CCC(N)=O)NC(=O)[C@@H](CCC(=O)O)NC(=O)[C@H](CCCNC(=N)N)NC(=O)[C@@H](Cc2c[nH]c3ccccc23)NC1=O [c[wLwReQeR]] (cyclo([dW]L[dW]R[dE]Q[dE]R))
- Tmax ([1]; male, C57BL/6, mouse, plasma, oral gavage, 15 mg/kg, C57B1/6): < 3 h
- AUC(0-t) ([1]; male, C57BL/6, mouse, plasma, oral gavage, 15 mg/kg, C57B1/6, read-out: AUC 0-24 h): < 3 nM·h
- Cmax ([1]; male, mouse, plasma, ip, 16-mg/kg i.p., BALB/c mice, read-out: peak plasma concentration): 13 µM
- peptide in plasma after oral gavage ([1]; oral gavage, limit of detection=3 nM): not detectable
- expression of cholesterol 7 alpha-hydroxylase (Cyp7a1) [2]: significantly increased
- composition of Foxp3+ regulatory T cell (Treg) population [3]: significantly altered
- Helios+/RORγt+ Treg ratio [3, 4]: increased
- Helios+/Th17 ratio [3, 4]: increased
